{
  "source": "patent US20250177353A1",
  "about": "(priority 2021, published 2025)",
  "key": {"[1]": {"details": "human, in vivo, 500 mg"}, "[2]": {"test": "SAD phase I study: plasma pharmacokinetics of 2,4-dinitrophenol after Compound 1 (Table 3)", "format": "in vivo, human", "details": "for Vd/F: 500 mg, read-out: Vz/F, Median", "description": "A double-blind, placebo-controlled, phase I study of the safety and pharmacokinetics of single ascending doses of compound 1 in healthy volunteers was conducted. The volunteers were orally administered Compound 1 in doses ranging from 30 mg once daily (QD) to 1400 mg QD in a total of 67 subjects (50 active/17 placebo) across 8 cohorts.\nScreening procedures occurred on Days -28 to -3. For all Cohorts except Cohort 4 (Fed/Fasted), subjects were admitted to the clinical research unit for up to 4 days. […] Following completion of all safety assessments and blood draws for PK analyses, subjects were discharged on Day 3. The Fed/Fasted cohort remained in the unit and were discharged on Day 7.\nDouble-blind dosing occurred in cohorts 1 through 8. In these cohorts, six subjects received Compound 1 and two received matching placebo. Doses escalated in the following sequence: 30, 100, 200, 500, 1400, 1050 and 600 mg. • Cohort 4 crossed-over to a fed state (50% fat meal) administration after pharmacokinetics and an inpatient washout had occurred for 72 hours after the first dose with a final dose.\nSubjects were admitted to the clinical research unit on Day 1. […] Blood draws for assessment of PK parameters occurred per schedule of assessments. IC were taken per schedule of assessments. Subjects were released on Day 3 following completion of all blood draws and safety assessments. The Fed/Fasted cohort remained in the unit and was discharged on Day 7.\nCompound 1 or matching placebo was administered orally as a single dose. All subjects except the fed cohort, were dosed in the morning after an 8-hour fast and remained in a semi-reclined position for 1 hour and fasting for 4 hours post-administration. Capsules were swallowed with 240 mL (8 fluid ounces) of room temperature water.\nCohort 4 was a crossover food effect analysis. Subjects enrolled in Cohort 4 were dosed 30 minutes following the beginning of a standardized (consisting of 50% fat) meal (following a 10-hour fast) to evaluate for food effects. The study drug was administered with room temperature 240 mL (8 fluid ounces) of water."}, "[3]": {"test": "MAD study: 2,4-dinitrophenol pharmacokinetics (accumulation, steady state)", "format": "in vivo, human", "details": "MAD cohort 1", "description": "A double-blind, sponsor-open, placebo-controlled, phase I study of the safety, pharmacokinetics and pharmacodynamics of multiple ascending doses of Compound 1 in high MBI volunteers was conducted. The first cohort of 10 healthy high body mass index (BMI) subjects has completed dosing at 200 mg Compound 1. Two more cohorts are also planned at doses of 400 and 550 mg QD.\nWith once daily dosing, significant accumulation of 2,4-dinitrophenol is anticipated at steady state."}, "[4]": {"details": "cited from earlier work"}, "[5]": {"details": "single dose 30 mg Compound 1, Fasted"}, "[6]": {"details": "single dose 100 mg Compound 1, Fasted"}, "[7]": {"details": "single dose 200 mg Compound 1, Fasted"}, "[8]": {"details": "single dose 500 mg Compound 1, Fasted"}, "[9]": {"details": "single dose 500 mg Compound 1, Fed"}, "[10]": {"details": "single dose 600 mg Compound 1, Fasted, Micronized"}, "[11]": {"details": "single dose 1050 mg Compound 1, Fasted"}, "[12]": {"details": "single dose 1050 mg Compound 1, Fasted, Micronized"}, "[13]": {"details": "single dose 1400 mg Compound 1, Fasted, Micronized"}},
  "note": "Where two headings read alike, the source gives them in different places.",
  "data": [
    {"smiles": "O=[N+]([O-])c1ccc(O)c([N+](=O)[O-])c1", "note": "[2,4-dinitrophenol]", "values": [
      {"measurement": "AUC increase under fed conditions relative to fasted conditions", "setting": "[1]", "result": "> 2.0", "unit": "fold"},
      {"measurement": "Cmax increase under fed conditions relative to fasted conditions", "setting": "[1]", "result": "> 1.8", "unit": "fold"},
      {"measurement": "Vd/F", "setting": "[2]; human, oral, single dose 500 mg Compound 1, Fasted", "result": 735, "unit": "L"},
      {"measurement": "Vd/F", "setting": "[2]; human, oral, single dose 500 mg Compound 1, Fed", "result": 269, "unit": "L"},
      {"measurement": "AUC(0-inf)", "setting": "[2]; human, oral, single dose 500 mg Compound 1, Fed, read-out: AUCinf, Median", "result": 83800, "unit": "ng·h/mL"},
      {"measurement": "half-life", "setting": "[2]; human, oral, single dose 500 mg Compound 1, Fed, read-out: t1/2, Median (converted)", "result": 31.2, "unit": "h"},
      {"measurement": "AUC0/24 h, Geometric Mean", "setting": "[2]; [5]", "result": 1440, "unit": "ng·h/mL"},
      {"measurement": "AUC0/24 h, Mean (SD)", "setting": "[2]; [5]", "result": "1500 (448) h*ng/ML"},
      {"measurement": "AUC0/24 h, Median", "setting": "[2]; [5]", "result": 1500, "unit": "ng·h/mL"},
      {"measurement": "CL/F, Geometric Mean", "setting": "[2]; [5]", "result": 7.44, "unit": "L/h"},
      {"measurement": "CL/F, Mean (SD)", "setting": "[2]; [5]", "result": "8.04 (3.39) L/h"},
      {"measurement": "CL/F, Median", "setting": "[2]; [5]", "result": 9.84, "unit": "L/h"},
      {"measurement": "AUC0/24 h, Geometric Mean", "setting": "[2]; [6]", "result": 4660, "unit": "ng·h/mL"},
      {"measurement": "AUC0/24 h, Mean (SD)", "setting": "[2]; [6]", "result": "4710 (711) h*ng/ML"},
      {"measurement": "AUC0/24 h, Median", "setting": "[2]; [6]", "result": 4820, "unit": "ng·h/mL"},
      {"measurement": "CL/F, Geometric Mean", "setting": "[2]; [6]", "result": 7.61, "unit": "L/h"},
      {"measurement": "CL/F, Mean (SD)", "setting": "[2]; [6]", "result": "7.75 (1.70) L/h"},
      {"measurement": "CL/F, Median", "setting": "[2]; [6]", "result": 7.87, "unit": "L/h"},
      {"measurement": "AUC0/24 h, Geometric Mean", "setting": "[2]; [7]", "result": 11100, "unit": "ng·h/mL"},
      {"measurement": "AUC0/24 h, Mean (SD)", "setting": "[2]; [7]", "result": "11200 (1970) h*ng/ML"},
      {"measurement": "AUC0/24 h, Median", "setting": "[2]; [7]", "result": 10900, "unit": "ng·h/mL"},
      {"measurement": "CL/F, Geometric Mean", "setting": "[2]; [7]", "result": 6.12, "unit": "L/h"},
      {"measurement": "CL/F, Mean (SD)", "setting": "[2]; [7]", "result": "6.35 (1.79) L/h"},
      {"measurement": "CL/F, Median", "setting": "[2]; [7]", "result": 7.19, "unit": "L/h"},
      {"measurement": "AUC%extrap, Median", "setting": "[2]; [8]", "result": 12.2, "unit": "%"},
      {"measurement": "AUCinf/D, Median", "setting": "[2]; [8]", "result": 62.4, "unit": "ng·h/mL/mg"},
      {"measurement": "CL/F, Geometric Mean", "setting": "[2]; [8]", "result": 16.5, "unit": "L/h"},
      {"measurement": "CL/F, Mean (SD)", "setting": "[2]; [8]", "result": "17.7 (7.65) L/h"},
      {"measurement": "CL/F, Median", "setting": "[2]; [8]", "result": 16.4, "unit": "L/h"},
      {"measurement": "AUC%extrap, Median", "setting": "[2]; [9]", "result": 6.56, "unit": "%"},
      {"measurement": "AUCinf/D, Median", "setting": "[2]; [9]", "result": 168, "unit": "ng·h/mL/mg"},
      {"measurement": "CL/F, Median", "setting": "[2]; [9]", "result": 5.97, "unit": "L/h"},
      {"measurement": "λz, Median", "setting": "[2]; [9]", "result": 0.0222, "unit": "h⁻¹"},
      {"measurement": "CL/F, Geometric Mean", "setting": "[2]; [10]", "result": 2.80, "unit": "L/h"},
      {"measurement": "CL/F, Mean (SD)", "setting": "[2]; [10]", "result": "3.20 (1.62) L/h"},
      {"measurement": "CL/F, Median", "setting": "[2]; [10]", "result": 2.74, "unit": "L/h"},
      {"measurement": "CL/F, Geometric Mean", "setting": "[2]; [11]", "result": 15.2, "unit": "L/h"},
      {"measurement": "CL/F, Mean (SD)", "setting": "[2]; [11]", "result": "16.8 (7.60) L/h"},
      {"measurement": "CL/F, Median", "setting": "[2]; [11]", "result": 18.3, "unit": "L/h"},
      {"measurement": "CL/F, Geometric Mean", "setting": "[2]; [12]", "result": 2.20, "unit": "L/h"},
      {"measurement": "CL/F, Mean (SD)", "setting": "[2]; [12]", "result": "2.33 (0.715) L/h"},
      {"measurement": "CL/F, Median", "setting": "[2]; [12]", "result": 2.50, "unit": "L/h"},
      {"measurement": "CL/F, Geometric Mean", "setting": "[2]; [13]", "result": 3.96, "unit": "L/h"},
      {"measurement": "CL/F, Mean (SD)", "setting": "[2]; [13]", "result": "4.12 (1.43) L/h"},
      {"measurement": "CL/F, Median", "setting": "[2]; [13]", "result": 3.60, "unit": "L/h"},
      {"measurement": "dose accumulation factor", "setting": "[3]; Compound 1 200 mg QD for 14 days", "result": "approximately 3.5 fold"},
      {"measurement": "time to steady-state", "setting": "[3]; Compound 1 200 mg daily dosing", "result": 7, "unit": "days"},
      {"measurement": "increase in RMR", "setting": "[4]; 2,4-dinitrophenol once daily 1-3 months (Tainter, Simkins)", "result": "20-40%"},
      {"measurement": "weight loss", "setting": "[4]; 2,4-dinitrophenol once daily 1-3 months", "result": "1.4-2.1 lbs./week"},
      {"measurement": "tolerability", "setting": "[4]; 2,4-dinitrophenol once daily over 1-3 months", "result": "well tolerated"},
      {"measurement": "2,4-dinitrophenol concentrations associated with adverse increases in body temperatures", "setting": "[4]; humans (Zhao 2015)", "result": "greater than 28,000 ng/ml"}
    ]}
  ]
}
